The values that follow come from patent US5472684A, “Oral compositions for plaque and gingivitis” (Colgate Palmolive Company, priority 1993, dated 1995).

Like-named read-outs stand apart in the source and are kept apart here.

Experiment [1] deals with Plaque. Description: 4-day plaque regrowth in a clinical study in humans, plaque score. The class given is in vivo. How it is done:
(§1) The efficacy of natural product rinse on the reduction of plaque was evaluated in a clinical study in humans. The study was randomized, blind, 3 cells cross-over design to measure the effects of each rinse on 4 day plaque growth from a zero baseline. […] On the other hand, 0.2% chlorhexidine rinse, clinically proven for plaque and gingivitis effect, inhibited 48.0% and 78.0% regrowth of plaque measured by score and area, respectively under similar conditions.

The test system of experiment [2] is Plaque. Description: 4-day plaque regrowth in a clinical study in humans, plaque area. The class given is in vivo. How it is done:
as §1

The test system of experiment [3] is Actinomyces viscosus. Description: MIC of natural flavoring agents vs. A. viscosus, standard serial dilution method. It is filed as cell-based. The conditions noted are these: for MIC: Actinomyces viscosus, read-out: Antibacterial Activity vs. A. viscosus MIC; for antibacterial activity against A. viscosus (in words): from MIC data of Table 1. How it is done:
The antibacterial activities of a number of natural flavoring agents were evaluated against Actinomyces viscosus, a dental plaque bacterium, by measuring the minimum inhibitory concentration (hereinafter referred to as MIC) of the respective agents in vitro according to the standard serial dilution method delineated in N. Nabi et al., Am. J. Dent. 2: 197:206, 1989 which is incorporated herein by reference. The MIC is defined for the purpose of this invention to mean the concentration of a particular agent at which no bacterial growth was observed. The natural flavoring agents used were obtained from commercial sources available in organic or aqueous solvents. The antibacterial compound, Triclosan, was used as a positive Control. Triclosan is 2,4,4'-trichloro-2'-hydroxydiphenyl ether.

The subject of experiment [4] is plaque and gingivitis. The settings on record: toothpaste and mouthrinse containing Triclosan, humans; cited from earlier work.
Experiment [5] concerns bacterial plaque formation. Briefly: Chemostat Plaque Model in vitro (flow cell system, artificial mouth). The class given is cell-based. The settings on record: about 0.5 wt % eucalyptol or about 0.01 wt. % sage oil added to rinse (2). The method, then:
The effect of natural product rinse (2) to inhibit bacterial plaque formation in vitro was assessed using the Chemostat Plaque Model according to methods of A. Gaffar et al. described in Am. J. Dent., 3, p. S7-S14, 1990. This in vitro model simulates the actual saliva and tooth surface interactions with respect to the plaque formation in the mouth and assesses the interactions, at biophysical and surface chemical level, of saliva-coated bacteria to saliva-coated surfaces with a surface energy similar to dental enamel.

Where [6] appears, read: 4-day plaque regrowth, rinsed twice daily, fifteen volunteers.
Setting [7] is: after 4 days, compared with 0.9% saline rinse, p < 0.001.
[8] abbreviates: in vitro, serial dilution, concentration at which no bacterial growth was observed.

With `[H]/N=C(\N/C(=N/[H])NCCCCCCNC(=N)NC(=N)Nc1ccc(Cl)cc1)Nc1ccc(Cl)cc1` [Chlorhexidine], in experiment [1] (setting [6]), the “Plaque Score” value is 0.128 +/- 0.068. In addition, the “Plaque Reduction % (plaque score)” value in experiment [1] (setting [7]) is 48.0%. In addition, in experiment [2] (setting [6]), the “Plaque Area” value was 0.069 +/- 0.055. Further, the “Plaque Reduction % (plaque area)” value in experiment [2] (setting [7]) worked out at 78.0%.

For the compound `C=CCc1ccc(O)c(OC)c1` [Eugenol], in experiment [3] (setting [8]), the MIC is 25 µg/mL. Moreover, the “antibacterial activity against A. viscosus (in words)” value (from here on “antibacterial activity”) in experiment [3] is “most active”.

As for `CC(C)=CCCC(C)=CCCC(C)=CCO` [Farnesol], the MIC in experiment [3] (setting [8]) is 25 µg/mL. For the same compound, the “antibacterial activity” value in experiment [3] is “excellent antibacterial activity equivalent to thymol or eugenol”; in experiment [3] (listed as farnesol) it was “most active”.

Take `Cc1ccc(C(C)C)c(O)c1` [Thymol]: the MIC in experiment [3] (setting [8]) was determined as 25 µg/mL. In experiment [3], the “antibacterial activity” value was “most active”.

As to `Oc1cc(Cl)ccc1Oc1ccc(Cl)cc1Cl` [Triclosan, 2,4,4'-trichloro-2'-hydroxydiphenyl ether, reference compound], in experiment [3], the MIC is 5 µg/mL. The “effect on plaque and gingivitis (in words)” value in experiment [4] was “reduce plaque and gingivitis”.

As for `CC12CCC(CC1)C(C)(C)O2` [eucalyptol], the “antiplaque activity on addition to natural product rinse (2) (in words)” value in experiment [5] is listed as “increases the antiplaque activity”.
